Results: US8604023B2, “1,4-benzodiazepinone compounds and their use in treating cancer” (The Regents of the University of Michigan, priority 2009, dated 2013)

Assays:
[1] = test system: Ramos cells; experiment: cytotoxicity in Ramos cells; format: cell-based; settings: Homo sapiens
Method: The compounds listed in Table 5 were tested for cytotoxicity in Ramos cells. The assay was conducted as described in K. M. Johnson et al. Chemistry & Biology 2005, 12, 485-496.

[2] = test system: A549/ATCC; experiment: cancer cell growth inhibition (SRB); format: cell-based, human; settings: Non-Small Cell Lung Cancer
[3] = test system: EKVX; experiment: cancer cell growth inhibition (SRB); format: cell-based, human; settings: Non-Small Cell Lung Cancer
[4] = test system: HOP-62; experiment: cancer cell growth inhibition (SRB); format: cell-based, human; settings: Non-Small Cell Lung Cancer
[5] = test system: HOP-92; experiment: cancer cell growth inhibition (SRB); format: cell-based, human; settings: Non-Small Cell Lung Cancer
[6] = test system: NCI-H226; experiment: cancer cell growth inhibition (SRB); format: cell-based, human; settings: Non-Small Cell Lung Cancer
[7] = test system: NCI-H23; experiment: cancer cell growth inhibition (SRB); format: cell-based, human; settings: Non-Small Cell Lung Cancer
[8] = test system: NCI-H322M; experiment: cancer cell growth inhibition (SRB); format: cell-based, human; settings: Non-Small Cell Lung Cancer
[9] = test system: NCI-H460; experiment: cancer cell growth inhibition (SRB); format: cell-based, human; settings: Non-Small Cell Lung Cancer
[10] = test system: NCI-H522; experiment: cancer cell growth inhibition (SRB); format: cell-based, human; settings: Non-Small Cell Lung Cancer
[11] = test system: COLO 205; experiment: cancer cell growth inhibition (SRB); format: cell-based, human; settings: Colon Cancer
[12] = test system: HCC-2998; experiment: cancer cell growth inhibition (SRB); format: cell-based, human; settings: Colon Cancer
[13] = test system: HCT-116; experiment: cancer cell growth inhibition (SRB); format: cell-based, human; settings: Colon Cancer
[14] = test system: HCT-15; experiment: cancer cell growth inhibition (SRB); format: cell-based, human; settings: Colon Cancer
[15] = test system: HT29; experiment: cancer cell growth inhibition (SRB); format: cell-based, human; settings: Colon Cancer
[16] = test system: KM12; experiment: cancer cell growth inhibition (SRB); format: cell-based, human; settings: Colon Cancer
[17] = test system: SW-620; experiment: cancer cell growth inhibition (SRB); format: cell-based, human; settings: Colon Cancer
[18] = test system: BT-549; experiment: cancer cell growth inhibition (SRB); format: cell-based, human; settings: Breast Cancer
[19] = test system: HS 578T; experiment: cancer cell growth inhibition (SRB); format: cell-based, human; settings: Breast Cancer
[20] = test system: MCF7; experiment: cancer cell growth inhibition (SRB); format: cell-based, human; settings: Breast Cancer
[21] = test system: MDA-MB-231/ATCC; experiment: cancer cell growth inhibition (SRB); format: cell-based, human; settings: Breast Cancer
[22] = test system: MDA-MB-435; experiment: cancer cell growth inhibition (SRB); format: cell-based, human; settings: Breast Cancer
[23] = test system: NCI/ADR-RES; experiment: cancer cell growth inhibition (SRB); format: cell-based, human; settings: Breast Cancer
[24] = test system: T-47D; experiment: cancer cell growth inhibition (SRB); format: cell-based, human; settings: Breast Cancer
[25] = test system: IGROV1; experiment: cancer cell growth inhibition (SRB); format: cell-based, human; settings: Ovarian Cancer
[26] = test system: OVCAR-3; experiment: cancer cell growth inhibition (SRB); format: cell-based, human; settings: Ovarian Cancer
[27] = test system: OVCAR-4; experiment: cancer cell growth inhibition (SRB); format: cell-based, human; settings: Ovarian Cancer
[28] = test system: OVCAR-5; experiment: cancer cell growth inhibition (SRB); format: cell-based, human; settings: Ovarian Cancer
[29] = test system: OVCAR-8; experiment: cancer cell growth inhibition (SRB); format: cell-based, human; settings: Ovarian Cancer
[30] = test system: SK-OV-3; experiment: cancer cell growth inhibition (SRB); format: cell-based, human; settings: Ovarian Cancer
[31] = test system: CCRF-CEM; experiment: cancer cell growth inhibition (SRB); format: cell-based, human; settings: Leukemia
[32] = test system: HL-60(TB); experiment: cancer cell growth inhibition (SRB); format: cell-based, human; settings: Leukemia
[33] = test system: K-562; experiment: cancer cell growth inhibition (SRB); format: cell-based, human; settings: Leukemia
[34] = test system: MOLT-4; experiment: cancer cell growth inhibition (SRB); format: cell-based, human; settings: Leukemia
[35] = test system: RPMI-8226; experiment: cancer cell growth inhibition (SRB); format: cell-based, human; settings: Leukemia
[36] = test system: SR; experiment: cancer cell growth inhibition (SRB); format: cell-based, human; settings: Leukemia
[37] = test system: 786-0; experiment: cancer cell growth inhibition (SRB); format: cell-based, human; settings: Renal Cancer
[38] = test system: A498; experiment: cancer cell growth inhibition (SRB); format: cell-based, human; settings: Renal Cancer
[39] = test system: ACHN; experiment: cancer cell growth inhibition (SRB); format: cell-based, human; settings: Renal Cancer
[40] = test system: CAKI-1; experiment: cancer cell growth inhibition (SRB); format: cell-based, human; settings: Renal Cancer
[41] = test system: RXF 393; experiment: cancer cell growth inhibition (SRB); format: cell-based, human; settings: Renal Cancer
[42] = test system: SN12C; experiment: cancer cell growth inhibition (SRB); format: cell-based, human; settings: Renal Cancer
[43] = test system: TK-10; experiment: cancer cell growth inhibition (SRB); format: cell-based, human; settings: Renal Cancer
[44] = test system: UO-31; experiment: cancer cell growth inhibition (SRB); format: cell-based, human; settings: Renal Cancer
[45] = test system: LOXIMVI; experiment: cancer cell growth inhibition (SRB); format: cell-based, human; settings: Melanoma
[46] = test system: M14; experiment: cancer cell growth inhibition (SRB); format: cell-based, human; settings: Melanoma
[47] = test system: MALME-3M; experiment: cancer cell growth inhibition (SRB); format: cell-based, human; settings: Melanoma
[48] = test system: SK-MEL-2; experiment: cancer cell growth inhibition (SRB); format: cell-based, human; settings: Melanoma
[49] = test system: SK-MEL-28; experiment: cancer cell growth inhibition (SRB); format: cell-based, human; settings: Melanoma
[50] = test system: SK-MEL-5; experiment: cancer cell growth inhibition (SRB); format: cell-based, human; settings: Melanoma
[51] = test system: UACC-257; experiment: cancer cell growth inhibition (SRB); format: cell-based, human; settings: Melanoma
[52] = test system: UACC-62; experiment: cancer cell growth inhibition (SRB); format: cell-based, human; settings: Melanoma
[53] = test system: DU-145; experiment: cancer cell growth inhibition (SRB); format: cell-based, human; settings: Prostate Cancer
[54] = test system: PC-3; experiment: cancer cell growth inhibition (SRB); format: cell-based, human; settings: Prostate Cancer
[55] = test system: SF-268; experiment: cancer cell growth inhibition (SRB); format: cell-based, human; settings: CNS Cancer
[56] = test system: SF-295; experiment: cancer cell growth inhibition (SRB); format: cell-based, human; settings: CNS Cancer
[57] = test system: SF-539; experiment: cancer cell growth inhibition (SRB); format: cell-based, human; settings: CNS Cancer
[58] = test system: SNB-19; experiment: cancer cell growth inhibition (SRB); format: cell-based, human; settings: CNS Cancer
[59] = test system: SNB-75; experiment: cancer cell growth inhibition (SRB); format: cell-based, human; settings: CNS Cancer
[60] = test system: U251; experiment: cancer cell growth inhibition (SRB); format: cell-based, human; settings: CNS Cancer

O=C1Nc2ccc(Cl)cc2C(c2ccc(N3CCNCC3)nc2)=NC1Cc1ccccc1Cl (stereo not drawn) [Compound V-23]
EC50 [1]: ≤ 5 µM | growth inhibition of the cancer cells [2]: +++ (at least 75% growth inhibition of the cancer cells) | growth inhibition of the cancer cells [3]: +++ (at least 75% growth inhibition of the cancer cells) | growth inhibition of the cancer cells [4]: +++ (at least 75% growth inhibition of the cancer cells) | growth inhibition of the cancer cells [5]: ++ (40%-75% growth inhibition of the cancer cells) | growth inhibition of the cancer cells [6]: + (less than 40% growth inhibition of the cancer cells) | growth inhibition of the cancer cells [7]: ++ (40%-75% growth inhibition of the cancer cells) | growth inhibition of the cancer cells [8]: + (less than 40% growth inhibition of the cancer cells) | growth inhibition of the cancer cells [9]: +++ (at least 75% growth inhibition of the cancer cells) | growth inhibition of the cancer cells [10]: +++ (at least 75% growth inhibition of the cancer cells) | growth inhibition of the cancer cells [11]: ++ (40%-75% growth inhibition of the cancer cells) | growth inhibition of the cancer cells [12]: +++ (at least 75% growth inhibition of the cancer cells) | growth inhibition of the cancer cells [13]: +++ (at least 75% growth inhibition of the cancer cells) | growth inhibition of the cancer cells [14]: +++ (at least 75% growth inhibition of the cancer cells) | growth inhibition of the cancer cells [15]: +++ (at least 75% growth inhibition of the cancer cells) | growth inhibition of the cancer cells [16]: +++ (at least 75% growth inhibition of the cancer cells) | growth inhibition of the cancer cells [17]: +++ (at least 75% growth inhibition of the cancer cells) | growth inhibition of the cancer cells [18]: +++ (at least 75% growth inhibition of the cancer cells) | growth inhibition of the cancer cells [19]: ++ (40%-75% growth inhibition of the cancer cells) | growth inhibition of the cancer cells [20]: +++ (at least 75% growth inhibition of the cancer cells) | growth inhibition of the cancer cells [21]: +++ (at least 75% growth inhibition of the cancer cells) | growth inhibition of the cancer cells [22]: +++ (at least 75% growth inhibition of the cancer cells) | growth inhibition of the cancer cells [23]: + (less than 40% growth inhibition of the cancer cells) | growth inhibition of the cancer cells [24]: ++ (40%-75% growth inhibition of the cancer cells) | growth inhibition of the cancer cells [25]: +++ (at least 75% growth inhibition of the cancer cells) | growth inhibition of the cancer cells [26]: +++ (at least 75% growth inhibition of the cancer cells) | growth inhibition of the cancer cells [27]: ++ (40%-75% growth inhibition of the cancer cells) | growth inhibition of the cancer cells [28]: +++ (at least 75% growth inhibition of the cancer cells) | growth inhibition of the cancer cells [29]: ++ (40%-75% growth inhibition of the cancer cells) | growth inhibition of the cancer cells [30]: ++ (40%-75% growth inhibition of the cancer cells) | growth inhibition of the cancer cells [31]: ++ (40%-75% growth inhibition of the cancer cells) | growth inhibition of the cancer cells [32]: +++ (at least 75% growth inhibition of the cancer cells) | growth inhibition of the cancer cells [33]: +++ (at least 75% growth inhibition of the cancer cells) | growth inhibition of the cancer cells [34]: ++ (40%-75% growth inhibition of the cancer cells) | growth inhibition of the cancer cells [35]: ++ (40%-75% growth inhibition of the cancer cells) | growth inhibition of the cancer cells [36]: ++ (40%-75% growth inhibition of the cancer cells) | growth inhibition of the cancer cells [37]: +++ (at least 75% growth inhibition of the cancer cells) | growth inhibition of the cancer cells [38]: + (less than 40% growth inhibition of the cancer cells) | growth inhibition of the cancer cells [39]: +++ (at least 75% growth inhibition of the cancer cells) | growth inhibition of the cancer cells [40]: +++ (at least 75% growth inhibition of the cancer cells) | growth inhibition of the cancer cells [41]: +++ (at least 75% growth inhibition of the cancer cells) | growth inhibition of the cancer cells [42]: +++ (at least 75% growth inhibition of the cancer cells) | growth inhibition of the cancer cells [43]: +++ (at least 75% growth inhibition of the cancer cells) | growth inhibition of the cancer cells [44]: +++ (at least 75% growth inhibition of the cancer cells) | growth inhibition of the cancer cells [45]: +++ (at least 75% growth inhibition of the cancer cells) | growth inhibition of the cancer cells [46]: +++ (at least 75% growth inhibition of the cancer cells) | growth inhibition of the cancer cells [47]: +++ (at least 75% growth inhibition of the cancer cells) | growth inhibition of the cancer cells [48]: ++ (40%-75% growth inhibition of the cancer cells) | growth inhibition of the cancer cells [49]: +++ (at least 75% growth inhibition of the cancer cells) | growth inhibition of the cancer cells [50]: +++ (at least 75% growth inhibition of the cancer cells) | growth inhibition of the cancer cells [51]: +++ (at least 75% growth inhibition of the cancer cells) | growth inhibition of the cancer cells [52]: ++ (40%-75% growth inhibition of the cancer cells) | growth inhibition of the cancer cells [53]: +++ (at least 75% growth inhibition of the cancer cells) | growth inhibition of the cancer cells [54]: ++ (40%-75% growth inhibition of the cancer cells) | growth inhibition of the cancer cells [55]: ++ (40%-75% growth inhibition of the cancer cells) | growth inhibition of the cancer cells [56]: +++ (at least 75% growth inhibition of the cancer cells) | growth inhibition of the cancer cells [57]: +++ (at least 75% growth inhibition of the cancer cells) | growth inhibition of the cancer cells [58]: ++ (40%-75% growth inhibition of the cancer cells) | growth inhibition of the cancer cells [59]: ++ (40%-75% growth inhibition of the cancer cells) | growth inhibition of the cancer cells [60]: +++ (at least 75% growth inhibition of the cancer cells)
